Measured values reported in patent publication EP4603105A1, “PHARMACEUTICAL COMPOSITION CONTAINING CYCLIC COMPOUND HAVING SELECTIVE KRAS INHIBITORY EFFECT AGAINST HRAS AND NRAS” (CHUGAI SEIYAKU KABUSHIKI KAISHA, priority 2022, dated 2024).
Where a SMILES comes first, the peptide text is derived from it. Bridges are numbered along the chain shown (N, C = ends). [ ]: non-standard residue; d: D form. The star is where a group is joined. hPhe(3,5-F2-4-CF3) = N[C@@H](CCc1cc(F)c(C(F)(F)F)c(F)c1)C(=O)O; hPhe(3-Cl-4-CF3) = N[C@@H](CCc1ccc(C(F)(F)F)c(Cl)c1)C(=O)O; NPrPhe(4-CF3) = CCCN[C@@H](Cc1ccc(C(F)(F)F)cc1)C(=O)O; NMeAbu(4,4,4-F3) = CN[C@@H](CC(F)(F)F)C(=O)O; NMePhe(4-F) = CN[C@@H](Cc1ccc(F)cc1)C(=O)O; NMeGly(cPent) = CN[C@H](C(=O)O)C1CCCC1; NMeD = CN[C@@H](CC(=O)O)C(=O)O; NMeL = CN[C@@H](CC(C)C)C(=O)O; Morpholide = C1CN(*)CCO1; Ac5c = NC1(C(=O)O)CCCC1; Aze = O=C(O)[C@@H]1CCN1; Sar = CNCC(=O)O

How the values were obtained:
HRAS wild-type protein = HRAS wild-type protein (Homo sapiens, UniProt P01112); experiment: Binding to HRAS by surface plasmon resonance (SPR), KD and KD ratio to KRAS
Sequence of HRAS wild-type protein (P01112 whole entry): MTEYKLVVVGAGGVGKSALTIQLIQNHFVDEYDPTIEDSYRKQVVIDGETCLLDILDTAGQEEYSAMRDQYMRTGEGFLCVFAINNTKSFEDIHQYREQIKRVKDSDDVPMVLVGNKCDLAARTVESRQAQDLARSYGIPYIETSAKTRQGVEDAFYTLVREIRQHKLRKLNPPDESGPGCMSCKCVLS
Method in brief: (§1)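 Captured GDP-RAS (~100–300 RU) was exposed to increasing compound concentrations, 75 s per step, in running buffer with 10 µM GDP, 10 mM MgCl2 and 4% DMSO at pH 7.4.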

[1] = test system: human lung cancer strain NCI-H441; format: cell-based
Method in brief: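 Step one: dispense the test compound in serial DMSO dilutions. Step three: add the reagent and measure […].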

[2] = target: GDP-bound NRAS wild-type protein (Homo sapiens, UniProt P01111); experiment: Binding to NRAS by surface plasmon resonance (SPR), KD and KD ratio to KRAS
Sequence of GDP-bound NRAS wild-type protein (P01111 whole entry): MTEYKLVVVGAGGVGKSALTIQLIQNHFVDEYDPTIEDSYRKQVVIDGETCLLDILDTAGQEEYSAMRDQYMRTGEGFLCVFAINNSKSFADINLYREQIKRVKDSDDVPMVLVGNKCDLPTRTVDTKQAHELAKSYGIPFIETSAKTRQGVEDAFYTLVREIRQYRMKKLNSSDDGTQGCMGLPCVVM
Method in brief: as §1

[3] = ratio of KD for HRAS wild-type protein to KD for KRAS
[4] = ratio of KD for GDP-bound NRAS wild-type protein to KD for KRAS
[5] = ratio of KD value for HRAS wild-type protein to KD value for KRAS (SPR)
[6] = ratio of KD value for GDP-bound NRAS wild-type protein to KD value for KRAS (SPR)
[7] = ratio of the KD value with respect to HRAS wild-type protein to the KD value with respect to KRAS
[8] = ratio of the KD value with respect to GDP-bound NRAS wild-type protein to the KD value with respect to KRAS

Row | SMILES | HRAS /KRAS (HRAS wild-type protein; [3]) | IC50 [1] [nM] | NRAS /KRAS [2, 4] | HRAS /KRAS (HRAS wild-type protein; [5]) | NRAS /KRAS [2, 6] | HRAS /KRAS (HRAS wild-type protein; [7]) | NRAS /KRAS [2, 8]
1 | CCCN1C(=O)CN(C)C(=O)[C@@H]2CCN2C(=O)[C@H]([C@@H](C)CC)NC(=O)[C@H](CC(C)C)N(C)C(=O)C[C@@H](C(=O)N2CCOCC2)N(C)C(=O)[C@H](CC(F)(F)F)N(C)C(=O)C2(CCCC2)NC(=O)[C@@H]2CCCN2C(=O)[C@H](CCc2cc(F)c(C(F)(F)F)c(F)c2)NC(=O)CN(C)C(=O)[C@@H]1Cc1ccc(C(F)(F)F)cc1 [PP0784] ([NMeL]I[Aze][Sar][NPrPhe(4-CF3)][Sar][hPhe(3,5-F2-4-CF3)]P[Ac5c][NMeAbu(4,4,4-F3)][NMeD]-Morpholide; lactam N-11) | B (a compound having 3 or more and less than 10 is denoted as B) | 447 | B (a compound having 3 or more and less than 10 is denoted as B) | – | – | – | –
2 | CC[C@H](C)[C@@H]1NC(=O)[C@@H]2CCCCc3ccc(cc3)C[C@@H](C(=O)N(C)CC(=O)N[C@@H](CCc3ccc(C(F)(F)F)c(OC)c3)C(=O)N3CC4(CC4)C[C@H]3C(=O)NC3(CC(C)(C)C3)C(=O)N(C)[C@@H](C3CCCC3)C(=O)N(C)[C@H](C(=O)N(C)CC)CC(=O)N2C)N2CC/C=C\C[C@@H](C2=O)N(C)C(=O)CN(C)C1=O [PP3081] | B (a compound having 3 or more and less than 10 is denoted as B) | 1.9 | A (a compound having 10 or more and less than 20 is denoted as A) | – | – | – | –
3 | CCO[C@@H]1C[C@H]2C(=O)NC3(CCC3)C(=O)N(C)[C@@H](C3CCCC3)C(=O)N(C)[C@H](C(=O)N(C)C)CC(=O)N(CC)[C@@H](CC(C)C)C(=O)N[C@@H]([C@@H](C)CC)C(=O)N(C)CC(=O)N(C)[C@H]3C/C=C\CCN(C3=O)[C@@H](Cc3ccc(C(F)(F)F)cc3)C(=O)N(C)CC(=O)N[C@@H](CCc3cc(F)c(C(F)(F)F)c(F)c3)C(=O)N2C1 [PP1765] | – | 16.8 | – | A (a compound having 10 or more and less than 20 is denoted as A) | A (a compound having 10 or more and less than 20 is denoted as A) | – | –
4 | CCC[C@H]1C(=O)N[C@@H]([C@@H](C)CC)C(=O)N(C)CC(=O)N(C)[C@H]2C/C=C\CCN(C2=O)[C@@H](Cc2ccc(C(F)(F)F)cc2)C(=O)N(C)CC(=O)N[C@@H](CCc2ccc(C(F)(F)F)c(OC)c2)C(=O)N2C[C@H](OCC)C[C@H]2C(=O)NC2(CC(C)(C)C2)C(=O)N(C)[C@@H](C2CCCC2)C(=O)N(C)[C@H](C(=O)N(C)C)CC(=O)N1C [PP1560] | – | 1.8 | – | B (a compound having 3 or more and less than 10 is denoted as B) | A (a compound having 10 or more and less than 20 is denoted as A) | – | –
5 | CCC[C@H]1C(=O)N[C@@H]([C@@H](C)CC)C(=O)N(C)CC(=O)N(C)[C@H]2C/C=C\CCN(C2=O)[C@@H](Cc2ccc(C(F)(F)F)cc2)C(=O)N(C)CC(=O)N[C@@H](CCc2ccc(C(F)(F)F)c(OC)c2)C(=O)N2CCCC[C@H]2C(=O)NC2(CC(C)(C)C2)C(=O)N(C)[C@@H](C(CC)CC)C(=O)N(C)[C@H](C(=O)N(C)C)CC(=O)N1C [PP2934] | A (a compound having 10 or more and less than 20 is denoted as A) | 108 | AA (a compound having 20 or more is denoted as AA) | – | – | – | –
6 | CCO[C@@H]1C[C@H]2C(=O)NC3(CCC3)C(=O)N(C)[C@@H](C3CCCC3)C(=O)N(C)[C@H](C(C)C)CC(=O)N(C)[C@@H](CC)C(=O)N[C@@H]([C@@H](C)CC)C(=O)N(C)CC(=O)N(C)[C@H]3C/C=C\CCN(C3=O)[C@@H](CC3CCCCC3)C(=O)N(C)CC(=O)N[C@@H](CCc3cc(F)c(C(F)(F)F)c(F)c3)C(=O)N2C1 [PP1601] | – | 78.6 | – | A (a compound having 10 or more and less than 20 is denoted as A) | B (a compound having 3 or more and less than 10 is denoted as B) | – | –
7 | CCC[C@H]1C(=O)N[C@@H]([C@@H](C)CC)C(=O)N(C)CC(=O)N(C)[C@H]2C/C=C\CCN(C2=O)[C@@H](Cc2ccc(C(F)(F)F)cc2)C(=O)N(C)CC(=O)N[C@@H](CCc2ccc(Cl)c(Cl)c2)C(=O)N2C[C@H](OCC)C[C@H]2C(=O)NC2(CC(C)(C)C2)C(=O)N(C)[C@@H](C2CCCC2)C(=O)N(C)[C@H](C(=O)N(C)C)CC(=O)N1C [PP1932] | – | 13.1 | – | – | – | A (a compound having 10 or more and less than 20 is denoted as A) | A (a compound having 10 or more and less than 20 is denoted as A)
8 | CC[C@H](C)[C@@H]1NC(=O)[C@H](CC(C)C)N(C)C(=O)C[C@@H](C(=O)N2CCOCC2)N(C)C(=O)[C@H](C2CCCC2)N(C)C(=O)C2(CCCC2)NC(=O)[C@@H]2CCCN2C(=O)[C@H](CCc2ccc(C(F)(F)F)c(Cl)c2)NC(=O)CN(C)C(=O)[C@H](Cc2ccc(F)cc2)N(C)C(=O)CN(C)C(=O)CN(C)C1=O [PP0212] ([NMeL]I[Sar][Sar][NMePhe(4-F)][Sar][hPhe(3-Cl-4-CF3)]P[Ac5c][NMeGly(cPent)][NMeD]-Morpholide; lactam N-11) | C (A compound having a KD ratio of 0.1 or more and less than 3 is denoted as C) | 26.6 | C (A compound having a KD ratio of 0.1 or more and less than 3 is denoted as C) | – | – | – | –
9 | CC[C@H](C)[C@@H]1NC(=O)[C@H](CC(C)C)N(C)C(=O)C[C@@H](C(=O)N2CCOCC2)N(C)C(=O)[C@H](C2CCCC2)N(C)C(=O)C2(CCC2)NC(=O)[C@@H]2CCCN2C(=O)[C@H](CCc2cc(F)c(C(F)(F)F)c(F)c2)NC(=O)CN(C)C(=O)[C@H](Cc2ccc(C(F)(F)F)cc2)N2CCCC[C@@H](C2=O)N(C)C(=O)CN(C)C1=O [PP0560] | – | 5.2 | – | – | – | B (a compound having 3 or more and less than 10 is denoted as B) | B (a compound having 3 or more and less than 10 is denoted as B)
10 | CCO[C@@H]1C[C@H]2C(=O)NC3(CCC3)C(=O)N(C)[C@@H](C3CCCC3)C(=O)N(C)[C@H](C(=O)N(C)C)CC(=O)N(C)[C@@H](CC)C(=O)N[C@@H]([C@@H](C)CC)C(=O)N(C)CC(=O)N(C)[C@H]3CCCCN(C3=O)[C@@H](Cc3ccc(C(F)(F)F)cc3)C(=O)N(C)CC(=O)N[C@@H](CCc3cc(Cl)c(Cl)c(Cl)c3)C(=O)N2C1 [PP0988] | B (a compound having 3 or more and less than 10 is denoted as B) | 10.3 | C (A compound having a KD ratio of 0.1 or more and less than 3 is denoted as C) | – | – | – | –
11 | CCC[C@H]1C(=O)N[C@@H]([C@@H](C)CC)C(=O)N(C2CC2)CC(=O)N(C)[C@H]2C/C=C\CCN(C2=O)[C@@H](Cc2ccc(C)cc2)C(=O)N(C)CC(=O)N[C@@H](CCc2cc(C)c(C(F)F)c(F)c2)C(=O)N2C[C@H](OCC)C[C@H]2C(=O)NC2(CC(C)(C)C2)C(=O)N(C)[C@@H](C2CCCC2)C(=O)N(C)[C@H](C(=O)N(C)C)CC(=O)N1C [PP2874] | A (a compound having 10 or more and less than 20 is denoted as A) | 44 | A (a compound having 10 or more and less than 20 is denoted as A) | – | – | – | –
12 | CCCN(C)C(=O)[C@@H]1CC(=O)N(C)[C@@H](C)C(=O)N[C@@H]([C@@H](C)CC)C(=O)N(C)CC(=O)N(C)[C@H]2C/C=C\CCN(C2=O)[C@@H](Cc2ccc(C(F)(F)F)cc2)C(=O)N(C)CC(=O)N[C@@H](CCc2cc(F)c(C(F)(F)F)c(F)c2)C(=O)N2C[C@H](OCC)C[C@H]2C(=O)NC2(CC(F)(F)C2)C(=O)N(C)[C@@H](C2CCCC2)C(=O)N1C [PP1731] | – | 7.4 | – | A (a compound having 10 or more and less than 20 is denoted as A) | A (a compound having 10 or more and less than 20 is denoted as A) | – | –
13 | CCC[C@H]1C(=O)N[C@@H]([C@@H](C)CC)C(=O)N2CCC[C@H]2C(=O)N(C)[C@H]2C/C=C\CCN(C2=O)[C@@H](CC2CCCCC2)C(=O)N(C)CC(=O)N[C@@H](CCc2ccc(C(F)(F)F)c(OC)c2)C(=O)N2C[C@H](OCC)C[C@H]2C(=O)N(C)C2(CCC2)C(=O)N(C)[C@@H](C2CCCC2)C(=O)N(C)[C@H](C(=O)N(C)C)CC(=O)N1C [PP2344] | – | 44.9 | – | – | – | A (a compound having 10 or more and less than 20 is denoted as A) | A (a compound having 10 or more and less than 20 is denoted as A)
14 | CCO[C@@H]1C[C@H]2C(=O)NC3(CC(C)(C)C3)C(=O)N(C)[C@@H](C3CCCC3)C(=O)N(C)[C@H](C(=O)N(C)CC)CC(=O)N(C)[C@@H](COC)C(=O)N[C@@H]([C@@H](C)CC)C(=O)N(C)CC(=O)N(C)[C@H]3C/C=C\CCN(C3=O)[C@@H](Cc3ccc(C(F)(F)F)cc3)C(=O)N(C)CC(=O)N[C@@H](CCc3ccc(C(F)(F)F)c(OC)c3)C(=O)N2C1 [PP1679] | – | 3.1 | – | A (a compound having 10 or more and less than 20 is denoted as A) | A (a compound having 10 or more and less than 20 is denoted as A) | – | –
